Test results reported in publication PMC5473807, “Distribution and kinetics of the Kv1.3-blocking peptide HsTX1[R14A] in experimental rats” (Scientific Reports, 2017).

Target: T1, mKv1.3 (Mus musculus, UniProt P16390)
T1 construct: expressed in transfected cells
Assay: Whole-cell patch-clamp block of Kv1.3 currents
Format: cell-based
Settings: L929 mouse fibroblasts stably expressing mKv1.3, room temperature, peak current at 40 mV, Hill fit, n = 3 cells per concentration, read-out: IC50 against Kv1.3
Method: L929 mouse fibroblast cells stably expressing mKv1.3[32] were gifts from Dr. K. George Chandy (University of California, Irvine). They were maintained in DMEM medium (Invitrogen, Carlsbad, CA) supplemented with 100 IU/mL penicillin, […] streptomycin, 2 mM L-glutamine, 10% heat-inactivated foetal bovine serum, and 0.5 mg/mL G418 (EMD Chemicals, Gibbstown, NJ).
Electrophysiology experiments were conducted at room temperature in the whole-cell configuration of the patch-clamp technique on a Port-a-Patch setup (Nanion, North Brunswick, NJ) linked to a HEKA EPC10USB amplifier (HEKA Instruments, Bellmore, NY). A holding potential of −80 mV was used for all recordings. Pipette resistances averaged 2.0 MΩ when filled with internal solution containing (in mM): 145 KF, 10 HEPES, 10 EGTA, and 2 MgCl2, pH 7.2, 290 mOsm. Kv currents were elicited every 30 s by 200-ms depolarising pulses from a holding potential of −80 mV to 40 mV. Kv1.3 currents were recorded in normal Ringer solution containing (in mM): 160 NaCl, 4.5 KCl, 2 CaCl2, 1 MgCl2, and 10 HEPES, pH 7.2, 300 mOsm. IC50 values and Hill coefficients were determined by fitting the Hill equation to the reduction of peak current by the drug at 40 mV.
Figure S2. […] (a) Whole-cell Kv1.3 currents measured by whole-cell patch-clamp in stably transfected L929 fibroblasts before (control) and after perfusion of 10 pM and 100 nM NOTA-HsTX1[R14A]. […]

T1 sequence (P16390 whole entry): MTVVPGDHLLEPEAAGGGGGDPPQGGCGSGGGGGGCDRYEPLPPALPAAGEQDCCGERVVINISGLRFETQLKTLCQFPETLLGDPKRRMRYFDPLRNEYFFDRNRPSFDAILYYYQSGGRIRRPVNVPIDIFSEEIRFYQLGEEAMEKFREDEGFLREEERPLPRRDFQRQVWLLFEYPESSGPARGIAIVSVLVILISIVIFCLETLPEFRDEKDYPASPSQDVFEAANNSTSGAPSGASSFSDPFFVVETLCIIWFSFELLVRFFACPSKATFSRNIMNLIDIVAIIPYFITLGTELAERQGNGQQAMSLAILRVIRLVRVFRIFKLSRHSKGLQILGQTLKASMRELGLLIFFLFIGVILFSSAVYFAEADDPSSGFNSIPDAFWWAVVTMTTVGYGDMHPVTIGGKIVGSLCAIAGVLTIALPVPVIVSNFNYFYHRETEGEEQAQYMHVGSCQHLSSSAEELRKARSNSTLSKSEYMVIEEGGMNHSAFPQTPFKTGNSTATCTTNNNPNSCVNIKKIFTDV

CSCC[C@@H]1NC(=O)[C@@H]2CSSC[C@H](NC(=O)[C@H](CO)NC(=O)[C@H](C)NC(=O)COCCOCCNC(=O)CN3CCN(CC(=O)O)CCN(CC(=O)O)CC3)C(=O)N[C@@H](CCCNC(=N)N)C(=O)N[C@@H]([C@@H](C)O)C(=O)N3CCC[C@H]3C(=O)N[C@@H](CCCCN)C(=O)N[C@@H](CC(=O)O)C(=O)N[C@H]3CSSC[C@H](NC(=O)[C@H](CCCCN)NC(=O)[C@H](CCCNC(=N)N)NC(=O)[C@H](CC(N)=O)NC1=O)C(=O)N[C@@H](CCCCN)C(=O)N[C@H]1CSSC[C@H](NC(=O)[C@@H]4CCCN4C(=O)[C@H](CC(=O)O)NC(=O)[C@H](C)NC3=O)C(=O)N[C@@H](C)C(=O)N[C@@H](CCCCN)C(=O)N[C@@H](CCC(=O)O)C(=O)N[C@@H]([C@@H](C)O)C(=O)NCC(=O)N[C@@H](CSSC[C@@H](C(N)=O)NC(=O)[C@H](CCCNC(=N)N)NC(=O)[C@H](CC(N)=O)NC1=O)C(=O)N1CCC[C@H]1C(=O)N[C@@H](Cc1ccc(O)cc1)C(=O)NCC(=O)N[C@@H](CCCCN)C(=O)N2 [NOTA-HsTX1[R14A]]
IC50: 0.068 ± 0.012 nM
